Where two headings read alike, the source gives them in different places.

The test system of one test is 15-LO. The following applies: 15-LO inhibition, cited from earlier work.
In test [1] the test system is human abdominal visceral PA. Briefly: aP2 marker expression during differentiation of human abdominal visceral pre-adipocytes (RT-PCR / RT-QPCR). Type of test: cell-based. As for the experimental part:
(§1) HWP from Promocell are maintained in PA growth medium (0.4% ECGS/H, 5% FCS, 10 ng/ml EGF, 1 μg/ml hydrocortisone, 50 ng/ml amphotericin B, 50 μg/ml gentamycin) until confluence. When cells reach confluence, they are differentiated for 3 days in PA differentiation medium (8 μg/ml d-biotin, 0.5 μg/ml recombinant human insulin, 400 ng/ml dexamethasone, 44 μg/ml IBMX, 9 ng/ml L-thyroxin, 3 μg/ml ciglitazone, 50 ng/ml amphotericin B, 50 ng/ml gentamycin), then cultured to the terminal differentiation stage in adipocyte nutritive medium (3% FCS, 8 μg/ml d-biotin, 0.5 μg/ml recombinant human insulin, 400 ng/ml dexamethasone, 50 ng/ml amphotericin B, 50 μg/ml gentamycin). PA from Cambrex are maintained in PA growth medium (10% FCS, 100 U/ml penicillin, 100 μg/ml streptomycin) until confluence, then the medium is replaced by differentiation medium (10% FCS, 10 μg/ml recombinant human insulin, 1 μM dexamethasone, 500 μM IBMX, 200 μM indomethacin, 100 U/ml penicillin, 100 μg/ml streptomycin) throughout the differentiation process. Extraction of RNA and Analysis of 15-LO-1 and aP2 Gene Expression by RT-PCR and RT-QPCR
Human abdominal visceral PA from several donors are differentiated as described in example 4. PD146176 diluted in DMSO is added when the PA reached confluence (D0) and is maintained in the medium during the differentiation of PA to adipocytes. DMSO at 0.1% final concentration is added to the culture medium as negative control.
aP2 (adipocyte lipid-binding protein), like adiponectin, is a marker of adipocyte differentiation. Total RNA is extracted from the cells at different times during differentiation (D3, D7) as described in example 3 and expression of the aP2 marker is analyzed by RT-PCR or RT-QPCR as described in examples 1 and 2. Relative expression is reported with reference to the day of confluence (D0) and normalized to cyclophilin expression.

Test [2] relates to 3T3-L1 cells. Briefly: Assay of intracellular triglycerides in 3T3-L1 cells. The class given is cell-based, mouse. As for the experimental part: The mouse PA 3T3-L1 cell line (ATCC) is maintained in DMEM (Dulbecco's Modified Eagle's minimal essential Medium) supplemented with 10% FCS, L-glutamine and a penicillin/streptomycin mixture. At confluence (D0), 3T3-L1 cells are differentiated by a two-day treatment with a mixture of dexamethasone (0.1 μM), isobutylmethylxanthine (0.25 mM) and insulin (0.4 μM). Cells are then maintained on insulin for another 14 days until differentiation is complete. Photographs are taken at different times after confluence in order to visually follow the differentiation process. PD146176 is added to the 3T3-L1 cells when they reach confluence (D0) and is maintained throughout the differentiation process with replacement every other day at the same time as the insulin. To assay intracellular triglycerides, the 3T3-L1 cells are differentiated in 24-well microtiter plates. Cells are washed three times in PBS, then 500 μl of homogenization buffer (150 mM NaCl, Tris HCL pH 8, 0.1% Triton X-100) are added to each well. The cells are scraped into a tube and lysed by sonication for 10 seconds at 40 watts. The lysate is then filtered on a 0.2 μM millipore filter. The assay is carried out on 125 μl of the resulting lysate using the Triglyceride L-type kit (Wako). The assay is normalized for the protein content of the lysates.

Test [3] deals with 3T3-L1 cells. Put plainly: 3T3-L1 cell morphology during adipocyte differentiation. The class given is cell-based, mouse. The note with it: addition at D0, photographs during differentiation. On the procedure:
(§2) The mouse PA 3T3-L1 cell line (ATCC) is maintained in DMEM (Dulbecco's Modified Eagle's minimal essential Medium) supplemented with 10% FCS, L-glutamine and a penicillin/streptomycin mixture. At confluence (D0), 3T3-L1 cells are differentiated by a two-day treatment with a mixture of dexamethasone (0.1 μM), isobutylmethylxanthine (0.25 mM) and insulin (0.4 μM). Cells are then maintained on insulin for another 14 days until differentiation is complete. Photographs are taken at different times after confluence in order to visually follow the differentiation process.
(§3) PD146176 is added to the 3T3-L1 cells when they reach confluence (D0) and is maintained throughout the differentiation process with replacement every other day at the same time as the insulin.

The test system of test [4] is 3T3-L1 cells. Put plainly: Quantification of 3T3-L1 differentiation with AdipoRed. The following applies: addition at D0, starting from D3 of differentiation. The class given is cell-based, mouse. As for the experimental part:
as §2, §3
The gradual accumulation of intracellular droplets is also used as a functional marker of differentiation to adipocytes. To quantify this accumulation the 3T3-L1 cells are differentiated in 96-well microtiter plates. The plates are removed from the incubator on the day of the assay in order to reequilibrate to room temperature. The medium is removed, the cells carefully rinsed with 200 μl PBS, and 200 μl PBS are then added to each well followed by 5 μl AdipoRed reagent (Cambrex, Paris, France). The plates are mixed before measuring fluorescence on a fluorimeter at an excitation wavelength of 485 nm and an emission wavelength of 535 nm.

Test [5] relates to human abdominal visceral PA. Put plainly: Adiponectin secretion during differentiation of human abdominal visceral pre-adipocytes. Type of test: cell-based. The note with it: culture supernatant, D7 of differentiation, treated from D0, PA culture No. 3 passage 4. As for the experimental part: as §1, with “Extraction of RNA and Analysis of 15-LO-1 and aP2 Gene Expression by RT-PCR and RT-QPCR” left out
Adiponectin is a factor secreted by adipocytes and, like aP2, serves as a marker of adipocyte differentiation in our cultures. Adiponectin concentrations is determined in culture supernatants at different times during differentiation using the Quantikine human adiponectin/ACRP30 kit according to the supplier's instructions (R&D, Minneapolis, Minn., USA).

For test [6], the system named is 3T3-L1 cells. Put plainly: aP2 and LPL expression by RT-QPCR in 3T3-L1 cells during differentiation. The class given is cell-based, mouse. The following applies: addition at D0, starting from D3 of differentiation. As for the experimental part:
as §2, §3
Total RNA is extracted at different times during differentiation as described in example 3 and expression of the aP2 and LPL (lipoprotein lipase) genes is analyzed by RT-QPCR according to the method described in example 2 (see Table 9).

Test [7] has as its system rat PA. Briefly: aP2 expression in rat primary PA during adipocyte differentiation. The class given is cell-based. The following applies: 2.2 μM added at D0, read at D3. As for the experimental part:
(§4) Cells from the VS fraction (isolated by the same method as that described in example 3) are seeded in 6-well plates at a density of 80,000 cells/cm^2 in medium 199 (Gibco) supplemented with 10% FCS and a penicillin/streptomycin mixture. After a 16-hour incubation to allow cell adherence, the wells are gently rinsed with PBS to remove any non-adherent material. The cells are grown to confluence (D0) at which time the medium 199 is removed and replaced by ITT medium (DME/Ham's F12, 15 mM NaHCO3, 15 mM Hepes, 33 μm biotin, 17 μM panthotenate, 0.5 μM human insulin, 0.2 nM triiodothyronine and antibiotics) without addition of serum. Cells are maintained in this medium to enable differentiation; the medium is changed every 2-3 days during the differentiation process.
Caffeic acid (2.2 μM) was added when the rat PA reach confluence (D0) and is maintained during the adipocyte differentiation process. At a concentration of 2.2 μM, caffeic acid is considered as a selective inhibitor of 15-LO (Shureiqi I, Chen D, Lee J J, Yang P, Newman R A, Brenner D E, Lotan R, Fischer S M and Lippman S M, 2000). […]
Total RNA is extracted at different times during differentiation according to the method described in example 3 and aP2 and LPL gene expression is analyzed by quantitative RT-PCR as described in example 2 (see Table 10).

The subject of test [8] is rat PA. Briefly: Rat primary PA morphology during adipocyte differentiation. Type of test: cell-based. The note with it: 2.2 μM added at D0. As for the experimental part:
as §4
Caffeic acid (2.2 μM) was added when the rat PA reach confluence (D0) and is maintained during the adipocyte differentiation process. At a concentration of 2.2 μM, caffeic acid is considered as a selective inhibitor of 15-LO (Shureiqi I, Chen D, Lee J J, Yang P, Newman R A, Brenner D E, Lotan R, Fischer S M and Lippman S M, 2000). DMSO is added to 0.1% final concentration to the culture medium as negative control.

Setting [9] is: value quoted from prior patents.

Consider `COc1ccc(C(=O)Nc2ccc(Cl)c(Cl)c2)cc1N` [3-amino-N-(3,4-dichlorophenyl)-4-methoxy-benzamide], for which the IC50 (as a rule, the concentration needed to halve the response being measured) in the test on 15-LO (setting [9]) was 10 nM.

For `COc1ccc(-c2cc3cc(F)c(F)cc3[nH]2)cc1NS(=O)(=O)NC(=O)OCC(C)C` [[[[5-(5,6-difluoro-1H-indol-2-yl)-2-methoxyphenyl]amino]sulfonyl]carabamic acid isobutyl ester], the IC50 with 15-LO (setting [9]) is 14 nM.

For the molecule `c1ccc2c(c1)SCc1c-2[nH]c2ccccc12` [PD146176, 6,11-dihydro-5-thia-11-aza-benzo[a]-fluorene], the “expression of the aP2 marker” value in [1] (RT-PCR, D3 of differentiation, PA culture No. 1 passage 7, increasing concentrations added at D0) is “decreases the expression of the aP2 marker in a dose-dependent manner”. Further, the “inhibition of 15-LO-1 expression” value in test [1] (RT-QPCR, D7, 3 μM from D0, PA culture No. 2) is “almost completely”; in test [1] (RT-QPCR, D7, 3 μM from D0, PA culture No. 3), 90%. The aP2 expression result in test [1] (RT-QPCR, D7 of differentiation, 3 μM from D0, PA cultures No. 2 and No. 3, vs DMSO-treated or untreated cells) is on record as “strongly inhibited”. The “decrease in triglyceride accumulation relative to the control” value with 3T3-L1 cells [2] (10 μM, D10) is recorded as 80%. The triglyceride accumulation entry in the test on 3T3-L1 cells [2] (addition at D0) is “dose-dependent decrease”. In addition, the IC50 with 15-LO (value quoted from prior literature/patents) is 500 to 800 nM; in the test with 15-LO (setting [9]), 200 nM. In addition, the “lipid accumulation in the cells (morphology)” value in the test on 3T3-L1 cells [3] was “dose-dependent inhibition of lipid accumulation”. Also, the AdipoRed staining entry in the test with 3T3-L1 cells [4] was “sharply decreases AdipoRed staining in a dose-dependent manner”. For the same molecule, the adiponectin secretion entry in test [5] is “sharply decreased”. The “expression of LPL marker” value in the test on 3T3-L1 cells [6] is “dose-dependent decrease”. For the same molecule, in the test on 3T3-L1 cells [6], the “expression of aP2 marker” value is listed as “dose-dependent decrease”.

Regarding `O=C(O)/C=C/c1ccc(O)c(O)c1` [caffeic acid], the aP2 expression result in the test with rat PA [7] is reported as “decreases aP2 expression”. The “lipid accumulation in the cells (morphology)” value with rat PA [8] was “inhibition of lipid accumulation”.

Source of the values: US8048900B2, “Use of 15-lipoxygenase inhibitors for treating obesity” (Genfit S.A., priority 2006, dated 2011).
